This passage reports IC50 results from patent publication US11814364B2, “Pyridine N-oxide derivatives useful as factor XIa inhibitors” (Janssen Pharmaceutica NV, priority 2021, dated 2023).

Where only a bound is given, the exact number is not on record here.

Broadly, the IC50 is the concentration that inhibits the measured activity by half.

Sequence of human plasma kallikrein (P03952 391-638 limits assumed): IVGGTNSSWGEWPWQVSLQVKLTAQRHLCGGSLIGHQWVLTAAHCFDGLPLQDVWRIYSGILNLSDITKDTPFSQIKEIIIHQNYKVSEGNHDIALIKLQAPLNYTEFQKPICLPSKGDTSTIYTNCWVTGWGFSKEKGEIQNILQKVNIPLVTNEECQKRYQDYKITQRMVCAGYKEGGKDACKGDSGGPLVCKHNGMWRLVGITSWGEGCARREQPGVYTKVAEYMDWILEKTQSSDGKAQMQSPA
Sequence of human plasma kallikrein (P03952 20-390 partner limits assumed): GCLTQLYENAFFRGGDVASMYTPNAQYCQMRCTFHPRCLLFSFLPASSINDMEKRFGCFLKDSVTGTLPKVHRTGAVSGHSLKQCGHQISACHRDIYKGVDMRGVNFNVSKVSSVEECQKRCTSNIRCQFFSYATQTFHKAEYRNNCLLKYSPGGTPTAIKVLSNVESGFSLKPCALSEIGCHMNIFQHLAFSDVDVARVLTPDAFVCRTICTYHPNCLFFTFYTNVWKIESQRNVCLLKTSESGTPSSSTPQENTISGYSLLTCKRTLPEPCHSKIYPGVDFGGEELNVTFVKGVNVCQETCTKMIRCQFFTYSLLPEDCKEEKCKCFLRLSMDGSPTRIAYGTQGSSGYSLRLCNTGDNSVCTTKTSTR

The target of the experiment is human plasma kallikrein (Homo sapiens, UniProt P03952). Put plainly: Kallikrein inhibition FLINT assay with quenched AMC peptide substrate Z-Gly-Pro-Arg-AMC (end point EP or kinetic KIN reads). The format is biochemical. As to conditions: kinetic reads at 5 min intervals over 30 min; read-out: Kallikrein (KIN) IC50. Summed up:
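Enzyme and compound were preincubated 30 min before adding 50 μM AMC substrate in pH 7.5 Tris/NaCl/CaCl2/BSA/CHAPS buffer. AMC release was read at 30 min endpoint or every 5 min.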
Turning to `CCOc1cc(C(CC2CC2)n2cc(-c3ncnn3C)cn2)[n+]([O-])cc1-c1cc(Cl)ccc1-n1cc(C(F)(F)F)nn1` (single isomer, unassigned) [Example P945], the IC50 is 324 nM. Take `NC(=O)c1ccc(-c2cnn(C(CC3CC3)c3ccc(-c4c(-n5cnnn5)ccc(Cl)c4F)c[n+]3[O-])c2)cc1F` (single isomer, unassigned) [Example P946]: the IC50 was 834 nM.

As for `NC(=O)c1ccc(-c2cnn(C(CC3CC3)c3ccc(-c4c(-n5cnnn5)ccc(Cl)c4F)c[n+]3[O-])c2)cc1F` (single isomer, unassigned) [Example P947], the IC50 amounted to 14.5 nM. Under `CCC(c1ccc(-c2c(-n3cnnn3)ccc(Cl)c2F)c[n+]1[O-])n1cc(-c2ccc(C(N)=O)c(F)c2)cn1` (single isomer, unassigned) [Example P949] stands 21.6 nM; under `NC(=O)c1scc(-c2cnn(C(CC3CC3)c3ccc(-c4c(-n5cnnn5)ccc(Cl)c4F)c[n+]3[O-])c2)c1F` (single isomer, unassigned) [Example P953], 13.4 nM. On to `NC(=O)c1scc(-c2cnn(C(CC3CC3)c3ccc(-c4c(-n5cnnn5)ccc(Cl)c4F)c[n+]3[O-])c2)c1F` (single isomer, unassigned) [Example P954], for which the IC50 was 788 nM. Turning to `Cc1cc(C(N)=O)sc1-c1cnn(C(CC2CC2)c2ccc(-c3c(-n4cc(C(F)(F)F)nn4)ccc(Cl)c3F)c[n+]2[O-])c1` (single isomer, unassigned) [Example P957], the IC50 turned out to be 222 nM. Under `COc1cc(C(CC2CC2)n2cc(-c3sc(C(N)=O)cc3C)cn2)[n+]([O-])cc1-c1cc(Cl)ccc1-n1cc(C(F)(F)F)nn1` (single isomer, unassigned) [Example P958] stands 13.1 nM. For `Cc1nc(C(F)(F)F)sc1-c1cnn(C(CC2CC2)c2ccc(-c3c(-n4cnnn4)ccc(Cl)c3F)c[n+]2[O-])c1` (single isomer, unassigned) [Example P961], the concentration for half-maximal inhibition (IC50) worked out at 85.6 nM.

On to `COc1cc(C(CC2CC2)n2cc(-c3cnn(C)c(=O)c3)cn2)[n+]([O-])cc1-c1c(C#N)ccc(Cl)c1F` (single isomer, unassigned) [Example Q10], for which the 50% inhibitory concentration (IC50) was 375 nM. `O=C(O)c1ccc(-c2cnn(C(CC3CC3)c3ccc(-c4c(C(F)F)ccc(Cl)c4F)c[n+]3[O-])c2)cc1` (single isomer, unassigned) [Example Q13]: the IC50 was found to be 97.1 nM. In the case of `O=C(O)c1ccc(-c2cnn(C(CN3CCCC3=O)c3ccc(-c4c(C(F)F)ccc(Cl)c4F)c[n+]3[O-])c2)cc1` (single isomer, unassigned) [Example Q14] it was 3.9 nM. In the case of `O=C(O)c1ccc(-c2cnn(C(CN3CCCC3=O)c3ccc(-c4c(C(F)F)ccc(Cl)c4F)c[n+]3[O-])c2)cc1` (single isomer, unassigned) [Example Q15] it was 382 nM; in that of `[O-][n+]1ccc(-c2cnn(C(Cc3ccc(F)cc3)c3ccc(-c4c(OC(F)F)ccc(Cl)c4F)c[n+]3[O-])c2)cc1` (single isomer, unassigned) [Example Q17], 7820 nM; in that of `[O-][n+]1ccc(-c2cnn(C(Cc3ccc(F)cc3)c3ccc(-c4c(C(F)F)ccc(Cl)c4F)c[n+]3[O-])c2)cc1` (single isomer, unassigned) [Example Q18], 5.1 nM. For `[O-][n+]1ccc(-c2cnn(C(Cc3ccc(F)cc3)c3ccc(-c4c(OC(F)F)ccc(Cl)c4F)c[n+]3[O-])c2)cc1` (single isomer, unassigned) [Example Q19], the IC50 turned out to be 48.4 nM. In the case of `[O-][n+]1cc(-c2c(C(F)F)ccc(Cl)c2F)ccc1C(Cn1cc(F)cn1)n1cc(-c2ccnc(C(F)(F)F)c2)cn1` (single isomer, unassigned) [Example Q22] it was 806 nM; in that of `[O-][n+]1cc(-c2c(C(F)F)ccc(Cl)c2F)ccc1C(Cn1cc(F)cn1)n1cc(-c2ccnc(C(F)(F)F)c2)cn1` (single isomer, unassigned) [Example Q23], 80.4 nM. `Nc1ccc(-c2cnn(C(Cn3cc(F)cn3)c3ccc(-c4c(C(F)F)ccc(Cl)c4F)c[n+]3[O-])c2)c(F)n1` (single isomer, unassigned) [Example Q25]: the IC50 came to 17.8 nM. Under `Nc1ccc(-c2cnn(C(Cn3cc(F)cn3)c3ccc(-c4c(C(F)F)ccc(Cl)c4F)c[n+]3[O-])c2)c(F)n1` (single isomer, unassigned) [Example Q26] stands 420 nM. In the case of `NC(=O)c1ccnn1CC(c1ccc(-c2c(C(F)F)ccc(Cl)c2F)c[n+]1[O-])n1cc(-c2ccnc(C(F)(F)F)c2)cn1` (single isomer, unassigned) [Example Q27] it was 4.7 nM; in that of `NC(=O)c1ccnn1CC(c1ccc(-c2c(C(F)F)ccc(Cl)c2F)c[n+]1[O-])n1cc(-c2ccnc(C(F)(F)F)c2)cn1` (single isomer, unassigned) [Example Q28], 94.6 nM; in that of `Cn1cc(CC(c2ccc(-c3c(C(F)F)ccc(Cl)c3F)c[n+]2[O-])n2cc(-c3cnnn3C)cn2)cn1` (single isomer, unassigned) [Example Q42], 44.3 nM. `[2H]C([2H])(CC(c1ccc(-c2cc(Cl)ccc2C#N)c[n+]1[O-])n1cc(-c2ncnn2C(F)F)cn1)OC(F)F` (single isomer, unassigned) [Example Q53]: the IC50 is 222 nM.

`COc1cc(C(CC2CC2)n2cc(-c3ncnn3C)cn2)[n+]([O-])cc1-c1cc(Cl)ccc1C#N` (single isomer, unassigned) [Example Q61]: the IC50 was found to be 281 nM. As for `COc1cc(C(CC2CC2)n2cc(-c3c(F)nnn3C)cn2)[n+]([O-])cc1-c1cc(Cl)ccc1C#N` (single isomer, unassigned) [Example Q62], the IC50 was 80.9 nM.

`O=C(O)c1ccc(-c2cnn(C(Cc3ccn(C(F)F)n3)c3ccc(-c4c(C(F)F)ccc(Cl)c4F)c[n+]3[O-])c2)cc1F` (single isomer, unassigned) [Example Q64]: the IC50 is 4.7 nM. In the case of `NC(=O)c1ccc(-c2cnn(C(Cc3ccn(C(F)F)n3)c3ccc(-c4c(C(F)F)ccc(Cl)c4F)c[n+]3[O-])c2)cc1F` (single isomer, unassigned) [Example Q66], the IC50 is 477 nM.

On to `NC(=O)c1ccc(-c2cnn(C(Cc3ccn(C(F)F)n3)c3ccc(-c4c(C(F)F)ccc(Cl)c4F)c[n+]3[O-])c2)cc1F` (single isomer, unassigned) [Example Q67], for which the IC50 came out at 2.9 nM. As for `NC(=O)c1ccc(-c2cnn(C(Cc3ccn(C(F)F)n3)c3ccc(-c4c(C(F)F)ccc(Cl)c4F)c[n+]3[O-])c2)cc1` (single isomer, unassigned) [Example Q68], the IC50 turned out to be 111 nM. In the case of `NC(=O)c1ccc(-c2cnn(C(Cc3ccn(C(F)F)n3)c3ccc(-c4c(C(F)F)ccc(Cl)c4F)c[n+]3[O-])c2)cc1` (single isomer, unassigned) [Example Q69] it was 0.8 nM; in that of `O=C(O)c1ccc(-c2cnn(C(Cc3ccn(C(F)F)n3)c3ccc(-c4c(C(F)F)ccc(Cl)c4F)c[n+]3[O-])c2)cc1` (single isomer, unassigned) [Example Q70], more than 274 nM. In the case of `O=C(O)c1ccc(-c2cnn(C(Cc3ccn(C(F)F)n3)c3ccc(-c4c(C(F)F)ccc(Cl)c4F)c[n+]3[O-])c2)cc1` (single isomer, unassigned) [Example Q71] it was 4.9 nM.
